Results on 38 compounds are retold here after patent US20100331348A1, “TROPANE DERIVATIVES USEFUL AS PESTICIDES” (SYNGENTA CROP PROTECTION, INC., priority 2007, published 2010).

For one experiment, the system named is Aedes aegypti. In words: Aedes aegypti (Yellow fever mosquito) larvae test. The note with it: 48 h. The format is in vivo.
In experiment [1] the test system is Erysiphe graminis f.sp. tritici. The experiment in a line: Erysiphe graminis f.sp. tritici (wheat powdery mildew) leaf disk assay. The note with it: Blumeria graminis, foliar, 96 h, preventive, four days after inoculation, read-out: control of fungal infection, Erysiphe graminis fsp. tritici. The experiment is classed as in vivo.
Experiment [2] deals with Puccinia recondita f.sp. tritici. In words: Puccinia recondita f.sp. tritici (wheat brown rust) leaf disk assay. The format is in vivo. The conditions noted are these: foliar, 216 h, preventive, nine days after inoculation, read-out: control of fungal infection, Puccinia recondita f.sp. tritici.
For a further experiment, the system named is Plutella xylostella. The experiment in a line: Plutella xylostella (Diamond back moth) artificial diet test. The note with it: 120 h, read-out: control of Plutella xylostella.
The next experiment deals with Phytophthora infestans. The experiment in a line: whole plant or invertebrate. The experiment is classed as in vivo. The conditions noted are these: foliar, 96 h, read-out: control of fungal infection, Phytophthora infestans.
The test system of another experiment is Pyricularia oryzae. The experiment in a line: whole plant or invertebrate. The format is in vivo. The conditions noted are these: foliar, 96 h.
Where [3] appears, read: read-out: control of fungal infection, Pyricularia oryzae (at least 60% list).
Where [4] appears, read: read-out: control of fungal infection, Pyricularia oryzae (at least 80% list).

Like-named read-outs stand apart in the source and are kept apart here. Bounds are passed on as bounds.

`CCc1ncnc(N2C3CCC2CC(=NOCc2ccccc2Cl)C3)c1Cl` [Example 5.28] had a pest or weed control at 2 ppm in the experiment with Aedes aegypti not below 80%. Besides, the pest or weed control at 200 ppm (in experiment [1]; in experiment [2]; with Plutella xylostella) was not below 80% throughout.

The compound `Fc1cccc(Cl)c1CON=C1CC2CCC(C1)N2c1ncnc2sccc12` [Example 5.213] had a pest or weed control at 2 ppm with Aedes aegypti not below 80%. Besides, the pest or weed control at 200 ppm (in experiment [1]; in experiment [2]; in the experiment on Plutella xylostella) was not below 80% throughout.

As to `CCc1ncnc(N2C3CCC2CC(=CC(=O)N(C)C)C3)c1Cl` [Example 3.3], in the experiment with Phytophthora infestans, the pest or weed control at 200 ppm is not below 80%.

`Cc1nc(CON=C2CC3CCC(C2)N3c2ncnc3sccc23)cs1` [Example 5.220]: the pest or weed control at 200 ppm (in experiment [1]; in experiment [2]; in the experiment with Phytophthora infestans) was not below 80% throughout.

With `FC(F)Oc1cccc(CON=C2CC3CCC(C2)N3c2ncnc3sccc23)c1` [Example 5.204], the pest or weed control at 2 ppm with Aedes aegypti was not below 80%. Also, the pest or weed control at 200 ppm in experiment [1] is not below 80%; in experiment [2], not below 80%; in the experiment with Pyricularia oryzae (setting [3]), not below 60%; in the experiment on Plutella xylostella it was not below 80%.

For the compound `CCc1ncnc(N2C3CCC2CC(=NOCc2ccc(C)cc2C)C3)c1Cl` [Example 5.36], the pest or weed control at 2 ppm in the experiment on Aedes aegypti is not below 80%. Further, the pest or weed control at 200 ppm (in experiment [1]; in experiment [2]; in the experiment with Plutella xylostella) was not below 80% each time.

As for `N#Cc1cccc(CON=C2CC3CCC(C2)N3c2ncnc3sccc23)c1` [Example 5.199], the pest or weed control at 200 ppm (in experiment [1]; in experiment [2]; with Pyricularia oryzae (setting [4]); with Phytophthora infestans) was not below 80% in each case.

Regarding `CCc1ncnc(N2C3CCC2CC(=NOCC(=O)OC(C)(C)C)C3)c1Cl` [Example 5.24], the pest or weed control at 200 ppm (in experiment [1]; in the experiment with Phytophthora infestans) was not below 80% in each case.

Turning to `FC(F)(F)c1ccc(OC2C[C@H]3CC[C@@H](C2)N3c2ncnc3sccc23)nc1` (stereo partly shown) [Example 2.61], the pest or weed control at 200 ppm in experiment [1] was not below 80%; in experiment [2] it was not below 80%; with Pyricularia oryzae (setting [3]), not below 60%; in the experiment on Phytophthora infestans it was not below 80%.

Take `FC(F)(F)c1ccccc1CON=C1CC2CCC(C1)N2c1ncnc2sccc12` [Example 5.188]: in the experiment with Aedes aegypti, the pest or weed control at 2 ppm was not below 80%. In addition, the pest or weed control at 200 ppm in experiment [1] is not below 80%; in experiment [2] it was not below 80%; with Pyricularia oryzae (setting [3]) it was not below 60%; in the experiment with Plutella xylostella, not below 80%.

Consider `CCc1ncnc(N2C3CCC2CC(=NOCc2c(C)noc2C)C3)c1Cl` [Example 5.110], for which the pest or weed control at 200 ppm (in experiment [2]; in the experiment on Phytophthora infestans) was not below 80% in each case.

Consider `CC(=O)Nc1ccc(CON=C2CC3CCC(C2)N3c2ncnc3sccc23)cc1` [Example 5.159], for which the pest or weed control at 200 ppm (in experiment [1]; in the experiment with Phytophthora infestans) was not below 80% throughout.

`Cc1cc(C)c(CON=C2CC3CCC(C2)N3c2ncnc3sccc23)c(C)c1` [Example 5.189]: the pest or weed control at 200 ppm (in experiment [1]; in experiment [2]; with Phytophthora infestans) was not below 80% each time.

`CCc1ncnc(N2C3CCC2CC(=NOCc2c(F)cccc2F)C3)c1Cl` [Example 5.61] showed a pest or weed control at 2 ppm with Aedes aegypti not below 80%. The pest or weed control at 200 ppm in experiment [1] was not below 80%; in experiment [2], not below 80%; in the experiment with Pyricularia oryzae (setting [3]), not below 60%; in the experiment on Plutella xylostella, not below 80%.

As to `COC(=O)Cc1c(Cl)ncnc1ON=C1CC2CCC(C1)N2c1ncnc2sccc12` [Example 5.237], the pest or weed control at 200 ppm (in experiment [1]; with Phytophthora infestans) was not below 80% each time.

Turning to `CCc1ncnc(N2C3CCC2CC(=NOCc2ccc(OC)c(Cl)c2Cl)C3)c1Cl` [Example 5.88], the pest or weed control at 2 ppm in the experiment on Aedes aegypti is not below 80%. Further, the pest or weed control at 200 ppm (in experiment [1]; in experiment [2]; with Pyricularia oryzae (setting [4]); in the experiment on Plutella xylostella) was not below 80% each time.

In the experiment on Aedes aegypti, `Cc1cccc(CON=C2CC3CCC(C2)N3c2ncnc3sccc23)c1F` [Example 5.223] yielded a pest or weed control at 2 ppm not below 80%. The pest or weed control at 200 ppm (in experiment [1]; in experiment [2]; in the experiment on Plutella xylostella) was not below 80% each time.

On to `FC(F)(F)c1cccc(OC2C[C@H]3CC[C@@H](C2)N3c2ncnc3ccccc23)n1` (stereo partly shown) [Example 2.83], for which the pest or weed control at 200 ppm (in experiment [1]; in experiment [2]; in the experiment on Phytophthora infestans) was not below 80% each time.

As for `Cc1nsc(Oc2cccc(OC3C[C@H]4CC[C@@H](C3)N4c3ncnc4scc(C)c34)c2)n1` (stereo partly shown) [Example 2.73], the pest or weed control at 200 ppm (in experiment [1]; in the experiment with Phytophthora infestans) was not below 80% in each case.

For the compound `CCc1ncnc(N2[C@@H]3CC[C@H]2CC(Oc2cccc(F)c2F)C3)c1Cl` (stereo partly shown) [Example 1.164], in the experiment with Aedes aegypti, the pest or weed control at 2 ppm was not below 80%. Further, the pest or weed control at 200 ppm (in experiment [1]; in experiment [2]; in the experiment on Plutella xylostella) was not below 80% each time.

In the experiment on Aedes aegypti, `CCc1ncnc(N2C3CCC2CC(=NOCc2ccccc2OC(F)F)C3)c1Cl` [Example 5.68] returned a pest or weed control at 2 ppm not below 80%. Further, the pest or weed control at 200 ppm (in experiment [1]; in experiment [2]; in the experiment with Plutella xylostella) was not below 80% in each case.

In the case of `c1ccc(CCON=C2CC3CCC(C2)N3c2ncnc3sccc23)cc1` [Example 5.140], the pest or weed control at 200 ppm in experiment [1] was not below 80%; in experiment [2] it was not below 80%; in the experiment with Pyricularia oryzae (setting [3]), not below 60%; in the experiment on Pyricularia oryzae (setting [4]), not below 80%; with Phytophthora infestans it was not below 80%.

`FC(F)(F)c1cccc(CON=C2CC3CCC(C2)N3c2ncnc3sccc23)c1` [Example 5.187] registered a pest or weed control at 2 ppm in the experiment on Aedes aegypti not below 80%. Besides, the pest or weed control at 200 ppm in experiment [1] is not below 80%; in experiment [2] it was not below 80%; in the experiment with Pyricularia oryzae (setting [3]), not below 60%; with Plutella xylostella it was not below 80%.

`Fc1cc(CON=C2CC3CCC(C2)N3c2ncnc3sccc23)cc(C(F)(F)F)c1F` [Example 5.235]: the pest or weed control at 200 ppm in experiment [1] was not below 80%; in experiment [2] it was not below 80%; in the experiment on Pyricularia oryzae (setting [3]), not below 60%; in the experiment with Phytophthora infestans, not below 80%.

Consider `Fc1cccc(OC2C[C@H]3CC[C@@H](C2)N3c2ncnc3sccc23)c1F` (stereo partly shown) [Example 1.24], for which, in the experiment with Aedes aegypti, the pest or weed control at 2 ppm is not below 80%. The values for the pest or weed control at 200 ppm (in experiment [2]; in the experiment with Pyricularia oryzae (setting [3]); in the experiment on Plutella xylostella) were not below 80%, not below 60% and not below 80%, respectively.

Take `CN(C)C(=O)C=C1CC2CCC(C1)N2c1ncnc2sccc12` [Example 3.25]: in the experiment on Phytophthora infestans, the pest or weed control at 200 ppm is not below 80%.

On to `CCc1ncnc(N2C3CCC2CC(=NOCc2ccc(NC(C)=O)cc2)C3)c1Cl` [Example 5.51], for which the pest or weed control at 200 ppm (in experiment [1]; in experiment [2]; in the experiment on Phytophthora infestans) was not below 80% in each case.

In the experiment with Aedes aegypti, `CCc1ncnc(N2C3CCC2CC(=NOCc2cccc(C)c2)C3)c1Cl` [Example 5.12] came in with a pest or weed control at 2 ppm not below 80%. Moreover, the pest or weed control at 200 ppm (in experiment [1]; in experiment [2]; with Plutella xylostella) was not below 80% each time.

On to `c1ccc(-c2ccccc2CON=C2CC3CCC(C2)N3c2ncnc3sccc23)cc1` [Example 5.177], for which the pest or weed control at 200 ppm in the experiment with Phytophthora infestans is not below 80%.

For `Cc1ccc(OC2C[C@H]3CC[C@@H](C2)N3c2ncnc3sccc23)cn1` (stereo partly shown) [Example 2.44], the pest or weed control at 200 ppm (in experiment [1]; in the experiment with Phytophthora infestans) was not below 80% throughout.

As to `CCc1ncnc(N2C3CCC2CC(=NOc2ncccn2)C3)c1Cl` [Example 5.2], the pest or weed control at 200 ppm in the experiment on Phytophthora infestans is not below 80%.

For the compound `CCc1ncnc(N2C3CCC2CC(=NOCc2ccccc2C(F)(F)F)C3)c1Cl` [Example 5.70], the pest or weed control at 2 ppm with Aedes aegypti was not below 80%. Besides, the pest or weed control at 200 ppm (in experiment [1]; in experiment [2]; with Plutella xylostella) was not below 80% in each case.

Turning to `CCc1ncnc(N2[C@@H]3CC[C@H]2CC(NCc2ccc(Cl)cc2)C3)c1Cl` (stereo partly shown) [Example 4.12], the pest or weed control at 200 ppm in the experiment with Phytophthora infestans is not below 80%.

`CCc1ncnc(N2C3CCC2CC(=NOCc2cccc(C#N)c2)C3)c1Cl` [Example 5.44]: in the experiment on Aedes aegypti, the pest or weed control at 2 ppm is not below 80%. Besides, the pest or weed control at 200 ppm (in experiment [1]; in experiment [2]; in the experiment with Plutella xylostella) was not below 80% each time.

Consider `c1ccc2c(c1)[nH]c1cc(OC3C[C@H]4CC[C@@H](C3)N4c3ncnc4sccc34)ccc12` (stereo partly shown) [Example 2.19], for which the pest or weed control at 200 ppm (in experiment [1]; in the experiment on Phytophthora infestans) was not below 80% each time.

Turning to `COc1cccc(CON=C2CC3CCC(C2)N3c2ncnc3sccc23)c1` [Example 5.164], in the experiment with Aedes aegypti, the pest or weed control at 2 ppm is not below 80%. In addition, the pest or weed control at 200 ppm (in experiment [1]; in experiment [2]; in the experiment on Plutella xylostella) was not below 80% each time.

`CCc1ncnc(N2[C@@H]3CC[C@H]2CC(Oc2ccc(OC)cc2C(C)=O)C3)c1Cl` (stereo partly shown) [Example 1.211]: the pest or weed control at 200 ppm in the experiment on Phytophthora infestans was not below 80%.

For `CCc1ncnc(N2C3CCC2CC(=NOCc2ccc(C)c(C)c2)C3)c1Cl` [Example 5.27], the pest or weed control at 200 ppm (in experiment [1]; in experiment [2]; in the experiment with Plutella xylostella) was not below 80% in each case.
